Assay results: patent US12643887B2, “Heterocyclic derivatives with cardiomyocyte proliferation activity for treatment of heart diseases” (Tongji University, priority 2019, dated 2026)
Read-outs that look alike come from different tables or passages of the source.

Assays:
[1] = tested on: Neonatal Rat Ventricular Myocytes (NRVMs); assay: Myocyte proliferation assay (EdU assay) in neonatal rat ventricular myocytes; format: cell-based; details: growth relative to blank myocyte growth without compound added; for Avg 1 uM (average myocyte proliferation): compound 1 uM; for Avg 3 uM (average myocyte proliferation): compound 3 uM; for Avg 10 uM (average myocyte proliferation): compound 10 uM
Procedure, shortened: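 After 36 h compound exposure (1, 3 or 10 uM in 6% FBS/ITS DMEM, following 24 h low-serum culture), NRVMs were pulsed with EdU for 12 h. Proliferation scored by automated confocal imaging of EdU click chemistry, ab8295 immunostaining and DAPI nuclei in fixed cultures.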

human CIT = molecular target: T1, human CIT (Homo sapiens, UniProt O14578); assay: CIT enzyme assay (ADP-Glo); format: biochemical
T1 construct: Recombinant human CIT (1-499); GST (N); purchased SignalChem C52-11G; host or cells: Sf9 insect cells
T1 sequence (O14578 1-499): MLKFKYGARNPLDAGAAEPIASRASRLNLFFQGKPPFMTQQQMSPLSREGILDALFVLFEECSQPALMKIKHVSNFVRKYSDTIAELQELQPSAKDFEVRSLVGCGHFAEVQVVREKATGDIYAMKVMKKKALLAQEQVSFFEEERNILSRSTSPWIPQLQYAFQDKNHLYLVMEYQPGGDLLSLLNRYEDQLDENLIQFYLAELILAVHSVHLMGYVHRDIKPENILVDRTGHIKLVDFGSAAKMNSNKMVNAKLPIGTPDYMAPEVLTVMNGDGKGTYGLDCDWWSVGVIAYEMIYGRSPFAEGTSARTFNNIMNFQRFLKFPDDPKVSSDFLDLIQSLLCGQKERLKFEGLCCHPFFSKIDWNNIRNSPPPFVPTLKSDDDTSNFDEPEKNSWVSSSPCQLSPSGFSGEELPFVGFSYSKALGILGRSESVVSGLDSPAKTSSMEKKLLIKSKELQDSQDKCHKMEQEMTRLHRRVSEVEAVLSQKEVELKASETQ
Experimental: The ability of compounds to inhibit human CIT kinase activities was determined using a commercially available ADP-Glo™ Kinase Assay kit (Promega, Cat #V9102) according to the manufacturer's protocol.
Recombinant human CIT (1-499) (expressed in Sf9 insect cells with an N-terminal GST tag) was purchased from SignalChem (Cat #C52-11G). Recombinant full length human MBP (expressed in E. Coli cells with an N-terminal GST tag) was purchased from SignalChem (Cat #M42-54G). This assay, run in a 384-well plate format, is a generic method for measuring kinase activities using an ADP-Glo Kinase Assay Kit. The basic assay procedure involves two steps: (1) Enzymatic step: inhibitors are incubated with the kinase and then ATP (included in the ADP-Glo Kinase Assay Kit) and the MBP protein are added to start the enzymatic reaction; (2) Detection step: after the kinase reaction, first ADP-Glo™ Reagent is added to terminate the kinase reaction and deplete the remaining ATP. Second, the Kinase Detection Reagent is added to simultaneously convert ADP to ATP and allow the newly synthesized ATP to be measured using a luciferase/luciferin reaction. The light generated is measured using a luminometer.
Briefly, CIT (20 nM) in the enzymatic buffer solutions (40 mM Tris, pH 7.5, 20 mM MgCl2, 0.1 mg/ml BSA, 50 μM DTT) were mixed with various concentrations of inhibitors (dissolved in 100% DMSO). These solutions were incubated for 30 minutes at 25° C., and subsequently a mixture of substrate peptide and ATP was added with the final peptide and ATP concentrations at 0.05 mg/ml and 5 μM, respectively. The final reaction mixture of enzyme-substrate-ATP-compound was incubated for 90 minutes at 25° C.
Afterwards ADP-Glo™ Reagent was added and the mixture was incubated at 25° C. for 60 minutes. Then Kinase Detection Reagent was added, and the final mixture was incubated at 25° C. for 60 minutes. The luminescence signal of the final solution was measured on an Envision instrument (PerkinElmer). The percent (%) inhibition at each concentration of a compound is calculated relative to the luminescence signal in the Max and Min control wells contained within each assay plate. […] The concentrations and percent inhibition values for a test compound are plotted and the concentration of the compound required to achieve 50% inhibition (IC50) is determined with a four-parameter logistic dose response equation.

[2] = ADP-Glo, ATP 5 μM, read-out: CIT IC50

Row | SMILES | Avg 1 uM (average myocyte proliferation) [1] | Avg 3 uM (average myocyte proliferation) [1] | IC50 (human CIT; [2]) [µM] | Avg 10 uM (average myocyte proliferation) [1] | IC50 (human CIT) [µM]
1 | O=C1NC(Nc2ccc3sccc3c2)=N/C1=C\c1ccc2ncsc2c1 [Example 101, (Z)-2-(benzo[b]thiophen-5-ylamino)-5-(benzo[d]thiazol-6-ylmethylene)-3,5-dihydro-4H-imidazol-4-one] | ** (10%-50%) | * (<10% growth relative to blank myocyte growth without compound added.) | – | – | –
2 | CN(C1=N/C(=C\c2ccc3ncccc3c2)C(=O)N1)c1ccc2ncsc2c1 [Example 85, (Z)-2-(benzo[d]thiazol-6-yl(methyl)amino)-5-(quinolin-6-ylmethylene)-3,5-dihydro-4H-imidazol-4-one] | * (<10% growth relative to blank myocyte growth without compound added.) | ** (10%-50%) | – | – | –
3 | CC(=O)N(C1=N/C(=C\c2ccc3ncsc3c2)C(=O)N1)c1ccc2ncsc2c1 [Example 91, (Z)—N-(benzo[d]thiazol-6-yl)-N-(4-(benzo[d]thiazol-6-ylmethylene)-5-oxo-4,5-dihydro-1H-imidazol-2-yl)acetamide] | * (<10% growth relative to blank myocyte growth without compound added.) | * (<10% growth relative to blank myocyte growth without compound added.) | – | – | –
4 | O=C1NC(Nc2ccc3nc[nH]c3c2)=N/C1=C\c1ccc2ncsc2c1 [Example 97, (Z)-2-((1H-benzo[d]imidazol-6-yl)amino)-5-(benzo[d]thiazol-6-ylmethylene)-3,5-dihydro-4H-imidazol-4-one] | * (<10% growth relative to blank myocyte growth without compound added.) | * (<10% growth relative to blank myocyte growth without compound added.) | – | – | –
5 | Nc1ccc(NC2=N/C(=C\c3ccc4ncsc4c3)C(=O)N2)cc1 [Example 98, (Z)-2-((4-aminophenyl)amino)-5-(benzo[d]thiazol-6-ylmethylene)-3,5-dihydro-4H-imidazol-4-one] | ** (10%-50%) | ** (10%-50%) | 0.1 to 1 | – | –
6 | O=C1NC(N(Cc2ccccc2)c2ccc3ncsc3c2)=N/C1=C\c1ccc2ncsc2c1 [Example 99, (Z)-2-(benzo[d]thiazol-6-yl(benzyl)amino)-5-(benzo[d]thiazol-6-ylmethylene)-3,5-dihydro-4H-imidazol-4-one] | ** (10%-50%) | * (<10% growth relative to blank myocyte growth without compound added.) | – | – | –
7 | CN(C1=N/C(=C\c2ccc3ncsc3c2)C(=O)N1)c1ccc2c(c1)ncn2C [Example 86, (Z)-5-(benzo[d]thiazol-6-ylmethylene)-2-(methyl(1-methyl-1H-benzo[d]imidazol-5-yl)amino)-3,5-dihydro-4H-imidazol-4-one] | ** (10%-50%) | ** (10%-50%) | – | – | –
8 | O=C1NC(=S)N/C1=C\c1ccc2sccc2c1 [Example 96, (Z)-5-(benzo[b]thiophen-5-ylmethylene)-2-thioxoimidazolidin-4-one] | * (<10% growth relative to blank myocyte growth without compound added.) | * (<10% growth relative to blank myocyte growth without compound added.) | – | – | –
9 | COCCN(C1=N/C(=C\c2ccc3ncsc3c2)C(=O)N1)c1ccc2ncsc2c1 [Example 89, (Z)-2-(benzo[d]thiazol-6-yl(2-methoxyethyl)amino)-5-(benzo[d]thiazol-6-ylmethylene)-3,5-dihydro-4H-imidazol-4-one] | ** (10%-50%) | * (<10% growth relative to blank myocyte growth without compound added.) | – | – | –
10 | O=C1NC(Nc2ccc3ncsc3c2)=N/C1=C\c1ccc2nccnc2c1 [Example 94, (Z)-2-(benzo[d]thiazol-6-ylamino)-5-(quinoxalin-6-ylmethylene)-3,5-dihydro-4H-imidazol-4-one] | * (<10% growth relative to blank myocyte growth without compound added.) | * (<10% growth relative to blank myocyte growth without compound added.) | – | – | –
11 | O=C1NC(Nc2ccc3ncsc3c2)=N/C1=C\c1ccc2cn[nH]c2c1 [Example 95, (Z)-5-((1H-indazol-6-yl)methylene)-2-(benzo[d]thiazol-6-ylamino)-3,5-dihydro-4H-imidazol-4-one] | * (<10% growth relative to blank myocyte growth without compound added.) | * (<10% growth relative to blank myocyte growth without compound added.) | – | – | –
12 | CC(C)Nc1nc2ccc(NC3=N/C(=C\c4ccc5ncsc5c4)C(=O)N3)cc2s1 [Example 100, (Z)-5-(benzo[d]thiazol-6-ylmethylene)-2-((2-(isopropylamino)benzo[d]thiazol-6-yl)amino)-3,5-dihydro-4H-imidazol-4-one] | ** (10%-50%) | ** (10%-50%) | – | – | –
13 | CN1C(=O)/C(=C/c2ccc3ncsc3c2)N=C1Nc1ccc2ncsc2c1 [Example 88, (Z)-2-(benzo[d]thiazol-6-ylamino)-5-(benzo[d]thiazol-6-ylmethylene)-3-methyl-3,5-dihydro-4H-imidazol-4-one] | * (<10% growth relative to blank myocyte growth without compound added.) | * (<10% growth relative to blank myocyte growth without compound added.) | – | – | –
14 | Cn1cnc2ccc(NC3=N/C(=C\c4ccc5ncsc5c4)C(=O)N3)cc21 [Example 93, (Z)-5-(benzo[d]thiazol-6-ylmethylene)-2-((1-methyl-1H-benzo[d]imidazol-6-yl)amino)-3,5-dihydro-4H-imidazol-4-one] | * (<10% growth relative to blank myocyte growth without compound added.) | ** (10%-50%) | – | – | –
15 | CN(C1=N/C(=C\c2ccc3[nH]ccc3c2)C(=O)N1)c1ccc2ncsc2c1 [Example 87, (Z)-5-((1H-indol-5-yl)methylene)-2-(benzo[d]thiazol-6-yl(methyl)amino)-3,5-dihydro-4H-imidazol-4-one] | ** (10%-50%) | ** (10%-50%) | – | – | –
16 | CCN(C1=N/C(=C\c2ccc3c(c2)OCO3)C(=O)N1)c1ccccc1 [Example 4, (Z)-5-(benzo[d][1,3]dioxol-5-ylmethylene)-2-(ethyl(phenyl)amino)-3,5-dihydro-4H-imidazol-4-one] | ** (10%-50%) | ** (10%-50%) | > 10 | ** (10%-50%) | –
17 | O=C1NC(Nc2ccc3ncsc3c2)=N/C1=C\c1cncs1 [Example 92, (Z)-2-(benzo[d]thiazol-6-ylamino)-5-(thiazol-5-ylmethylene)-3,5-dihydro-4H-imidazol-4-one] | * (<10% growth relative to blank myocyte growth without compound added.) | * (<10% growth relative to blank myocyte growth without compound added.) | – | – | –
18 | CC(=O)N(C1=N/C(=C\c2ccc3c(c2)OCO3)C(=O)N1)c1ccccc1 [Example 5, (Z)—N-(4-(benzo[d][1,3]dioxol-5-ylmethylene)-5-oxo-4,5-dihydro-1H-imidazol-2-yl)-N-phenylacetamide] | ** (10%-50%) | ** (10%-50%) | – | *** (>50%) | > 10
19 | Cc1nc2ccc(NC3=N/C(=C\c4ccc5ncsc5c4)C(=O)N3)cc2s1 [Example 90, (Z)-5-(benzo[d]thiazol-6-ylmethylene)-2-((2-methylbenzo[d]thiazol-6-yl)amino)-3,5-dihydro-4H-imidazol-4-one] | ** (10%-50%) | ** (10%-50%) | > 10 | – | –
